Where “and” joins values, the source holds several entries; their conditions need not be identical. Equal entries are not always repeated.
Legend:
[1] = test system: T. gondii ME49 bradyzoites; assay: Real-time PCR on ileum cDNA of infected Z-DNA binding protein knock out mice; assay type: in vivo, Toxoplasma gondii; details: homogenized mouse ileum cDNA
Experimental: (§1) Delta-6-desaturase inhibition. SC 26196 (Cayman) was solubilized in DMSO and used at 20 μM in mouse organoid monolayers. For in vivo treatment, the inhibitor was solubilized in 0.5% m/v methylcellulose and the mice were given 50 mg/kg every 12 hours by oral gavage (He et al., 2012). 4-week old C57BL/6J female mice deleted in Z-DNA-binding protein (Pittman et al., 2016) were divided into four different groups: uninfected control, T. gondii-infected without fatty acid supplementation, T. gondii infected with linoleic acid supplementation, and T. gondii-infected with linoleic acid and SC 26196 inhibitor. Each mouse supplemented with linoleic acid received 10 μL of 99% linoleic acid oil (MilliporaSigma Cat #843483) suspended in 0.5% Methylcellulose per day by oral gavage. Mice were infected with 1000 brain cysts purified as described above by oral gavage and euthanized 7 days post infection. Sample size was at least 2 mice per group and the experiment was repeated 5 times. Alternatively, each mouse was infected with one mouse brain at least 2 months postinfection with at least 1000 cysts. Mice were treated with SC 26196 until day 5 postinfection. Feces were collected from days 5-14 and oocysts enumerated by microscopy.
Real-time PCR on ileum cDNA. Z-DNA binding protein deletion mice ice with and without delta-6-desaturase inhibitor treatment were euthanized 7 days post infection. The ileum of each mouse was removed and homogenized in 1 mL of TRIzol. Total RNA was isolated according to manufacturer's protocol (Invitrogen) and treated with amplification grade Dnase I. cDNA was generated using the Invitrogen SuperScript III First-Strand Synthesis kit with random hexamer primers. GRA11B and SAG1 were used as markers of sexual and asexual stages, respectively. The T. gondii housekeeping gene TUB1A was used to normalize target gene expression. Real-time quantitative PCR was performed using Bio-Rad iTaq Universal SYBR Green Supermix on 311 an Applied Biosystems StepOnePlus Real-Time PCR system. The efficiency of each primer set was calculated from the slope of a 1:10 dilution standard curve of tachyzoite gDNA, where E=10^(−1/slope). The Pfaffl method (Pfaffl, 2001), which accounts for differences in efficiencies, was then used to calculate the relative gene expression of GRA11B and SAG1 per sample, in triplicate. Only wells with one melt curve temperature were used, indicating a single product. Primer sequences were as follows:
Statistical methods. All real-time PCR fecal samples were run in triplicate technical replicates. The difference between the mean target gene copy numbers was analyzed by two-tailed unpaired t tests. The real-time PCR intestinal samples were run in triplicate from two biological replicates per group. The difference between the mean relative expression of each target gene was analyzed by two-tailed unpaired t tests.

T. gondii = assay: Real-time PCR (SAG1) on gDNA of mouse fecal samples; assay type: in vivo, Toxoplasma gondii; details: gDNA of mouse fecal samples
Experimental: as §1
Real-time PCR on fecal samples. […] A standard curve was generated using a dilution series of 101-105 parasites per well amplified using the SAG1 primer set described above, based on a gDNA sample with known parasite quantity. […]
[formula] […] The calculated copy numbers of each sample were normalized based on the ng of nucleic acid used as PCR template. […]
Statistical methods. […] The difference between the mean target gene copy numbers was analyzed by two-tailed unpaired t tests. […] The difference between the mean relative expression of each target gene was analyzed by two-tailed unpaired t tests.

[2] = 7 days post infection, Mouse 1 and Mouse 2, wells 1-3

CCCCC/C=C\C/C=C\CCCCCCCC(=O)O [linoleic acid]
GRA11B raw Ct values [1, 2]: 33.43 and 36.02 and 35.59 and 38.24 and 39.05 | SAG1 raw Ct values [1, 2]: 32.63 and 31.52 and 32.31 and 31.46 and 32.97 and 31.72 | GRA11B Ct mean ([1]; Mouse 1 and Mouse 2): 37.13 and 36.02 | SAG1 Ct mean ([1]; Mouse 1 and Mouse 2): 32.63 and 31.57 | SAG1 Ct mean (T. gondii): 35.84 | SAG1 raw Ct values (T. gondii; wells 1-3): 37.02 and 36.43 and 34.08

From patent US12171821B2, “Toxoplasma gondii vaccine” (priority 2018, dated 2024)
